Assay results published in paper PMC10687071 (The Journal of Biological Chemistry, 2023).

Target: T1, PAS domain of EAG1 channels (Mus musculus, UniProt Q60603)
T1 construct: DNA encoding PAS (residues 7–136) of mouse EAG1 channels (GI # Q60603); 6-His (N); TEV protease cleavage site (N); made in house; host or cells: BL21 (DE3) Escherichia coli
T1 sequence (Q60603 7-136): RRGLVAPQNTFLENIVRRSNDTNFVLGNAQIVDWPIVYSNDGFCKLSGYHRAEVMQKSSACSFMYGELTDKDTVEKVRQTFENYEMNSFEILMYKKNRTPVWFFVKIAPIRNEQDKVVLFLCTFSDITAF
Test: Surface plasmon resonance, PAS domain immobilized on CM5 chip
Format: binding
Details: imipramine 1, 10 and 30 μM; concentration-dependent increase in SPR response; affinity not determined
Experimental: DNA encoding PAS (residues 7–136) of mouse EAG1 channels (GI # Q60603) was synthesized by BioBasic and subcloned into pETM11 bacterial expression vector containing an N-terminal 6-His affinity tag followed by a tobacco etch virus (TEV) protease cleavage site. The DNA sequences were verified by sequencing (Genewiz). The PAS domains were expressed in BL21 (DE3) Escherichia coli cells as previously described ([25], [63]). The cells were grown at 37 °C to an optical density at 600 nm of 0.6 to 0.8, induced with IPTG at 18 °C overnight and harvested by centrifugation. The cells were resuspended in 150 mM KCl, 1 mM TCEP, 1 mM ABSF, 2.5 mg/ml DNaseI and 30 mM HEPES, pH 7.5. Cells were lysed with an Emulsiflex-C5 (Avestin). Insoluble protein was separated by centrifugation in 45 Ti rotor at 30,000 rpm for 1 h at 4 °C. The PAS domains were purified by Ni^2+ affinity chromatography using HisTrap HP column (Cytiva) and eluted on a linear gradient to 500 mM imidazole. The protein was further purified on a Superdex 200 Increase 10/300 column (Cytiva) equilibrated with 150 mM KCl, 1 mM TCEP, 10% glycerol, and 30 mM HEPES, pH 7.5. The protein concentration was determined with Bradford Protein Assay Kit (Pierce).
All SPR binding experiments were performed on a CM5 chip (Cytiva) at 25 °C using a Biacore T200 Instrument (GE Healthcare). […]

Compound: CN(C)CCCN1c2ccccc2CCc2ccccc21 [imipramine]
- SPR binding to the immobilized PAS domain: directly binds
